Several values for one entry are separate records, joined by “and”; a condition that tells them apart may be missing. Equal values may be shown once. Read-outs that look alike come from different tables or passages of the source.
How the values were obtained:
p62 = target: T1, p62 (Homo sapiens, UniProt Q13501); test: In vitro p62 oligomerization assay; format: biochemical; conditions: HEK293T lysate
T1 construct: expressed in transfected cells; host or cells: HEK293T, transient; whole lysate used
T1 sequence (Q13501 whole entry): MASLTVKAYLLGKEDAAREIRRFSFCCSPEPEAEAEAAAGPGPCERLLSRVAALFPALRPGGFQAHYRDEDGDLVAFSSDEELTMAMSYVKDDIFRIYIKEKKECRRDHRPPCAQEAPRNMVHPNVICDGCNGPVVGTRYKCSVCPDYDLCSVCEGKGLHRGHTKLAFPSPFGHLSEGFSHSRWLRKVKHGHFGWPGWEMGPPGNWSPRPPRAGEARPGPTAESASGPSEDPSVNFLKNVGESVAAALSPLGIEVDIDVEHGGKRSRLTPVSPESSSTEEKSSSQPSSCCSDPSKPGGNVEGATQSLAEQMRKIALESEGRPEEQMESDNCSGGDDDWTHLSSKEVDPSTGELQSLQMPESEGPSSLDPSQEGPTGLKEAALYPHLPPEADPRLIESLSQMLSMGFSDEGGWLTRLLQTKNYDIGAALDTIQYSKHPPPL
Protocol: HEK293T cells were transiently transfected with a plasmid encoding p62-myc/his fusion proteins. Cells were resuspended in lysis buffer [50 mM HEPES (pH 7.4), 0.15 M KCl, 0.1% Nonidet P-40), 10% glycerol, containing a mixture of protease inhibitors and phosphatase inhibitor (Abcam)]. To lyse the cells, 10 cycles of freezing and thawing was done, followed by centrifugation at 13,000 × g for 20 min at 4 °C. Using a BCA assay, the protein concentration of the supernatant was measured. A total of 1 μg of protein was incubated with 1 mM of p62-ZZ ligands in the presence of 100 μM bestatin (Enzo) at room temperature for 2 h. After incubation, each sample was mixed with non-reducing 4X LDS sample buffer, heated at 95 °C for 10 min, and resolved using 4–20% gradient SDS-PAGE (Bio-Rad). To monitor the conversion of p62 monomers into oligomers or aggregates, IB assay was performed using anti-myc antibody.

Ub^+ and p62^+ puncta = test: ICC of Ub (FK2) and p62 puncta in HeLa cells; format: cell-based; conditions: 1 μM 24 h, autophagy inhibition (HCQ)
Protocol: Fig. 4 Targeted autophagic delivery and degradation of misfolded protein cargoes using AUTOTACs with aggregate-binding warhead. a A model illustrating the mode of action of aggregate-targeting AUTOTAC. b Chemical structures of PBA-1105, PBA-1106, Anle138b-F105 and PBA-1105b. c In vitro p62 oligomerization assay in HEK293T cells incubated with the indicated compounds in (b). d WB in HEK293T cells treated with MG132 (1 μM, 24 h), HCQ (10 μM, 24 h), PBA-1105, YTK-1105, and PBA (1 μM, 24 h). e Identical to (d), but with Anle-F105. f ICC of HeLa cells treated with HCQ (10 μM, 24 h), MG132 (2 μM, 18 h) or both in the presence of PBA-1106, YOK-1106 or PBA (1 μM, 24 h). Scale bar, 10 μm. g Quantification of (f) (n = 3, 50 cells). h ICC of HeLa cells treated with Anle138b-F105 (1 μM, 24 h). Scale bar, 10 μm. i Quantification of (h) (n = 3, 50 cells). When indicated, n = 3 biologically independent experiments each counting 50 cells. Data are presented as mean values ± SD where relevant. P-values (from a two-sided unpaired t test): ***P < 7.66E−05. Source data are provided with this paper.
(§1) Cells were cultured on coverslips coated with poly-L-lysine (Sigma) to observe cellular localization of proteins. Using 4% paraformaldehyde in PBS (pH 7.4), the cells were fixed for 15 min at room temperature and washed three times for 5 min with PBS. After fixing, the cells were permeabilized with 0.5% Triton X-100 in PBS solution for 15 min and washed three times with PBS for 5 min. The cells were blocked containing 2% BSA in PBS solution for 1 h at room temperature. Subsequently, the cells were incubated with primary antibody diluted in 2% BSA/PBS solution overnight at 4 °C, followed by washing the cells three times for 10 min with PBS and incubated with Alexa Fluor-conjugated secondary antibody diluted in 2% BSA/PBS for 30 min at room temperature. Using a DAPI-containing mounting medium (Vector Laboratories), the coverslips were mounted on glass slides. Confocal images were taken by laser scanning confocal microscope 510 Meta (Zeiss) and analyzed by Zeiss LSM Image Browser (ver. 4.2.0.121). […] Quantification results are shown as mean ± S.D. or S.E.M. of three independent experiments

tauP301L = tauP301L (Homo sapiens, UniProt P10636, P618L); test: WB degradation of tauP301L in SH-SY5Y-tauP301L cells; format: cell-based; conditions: SH-SY5Y-tauP301L cells
tauP301L, sequence (P10636 1-441 isoform P10636-8 P301L): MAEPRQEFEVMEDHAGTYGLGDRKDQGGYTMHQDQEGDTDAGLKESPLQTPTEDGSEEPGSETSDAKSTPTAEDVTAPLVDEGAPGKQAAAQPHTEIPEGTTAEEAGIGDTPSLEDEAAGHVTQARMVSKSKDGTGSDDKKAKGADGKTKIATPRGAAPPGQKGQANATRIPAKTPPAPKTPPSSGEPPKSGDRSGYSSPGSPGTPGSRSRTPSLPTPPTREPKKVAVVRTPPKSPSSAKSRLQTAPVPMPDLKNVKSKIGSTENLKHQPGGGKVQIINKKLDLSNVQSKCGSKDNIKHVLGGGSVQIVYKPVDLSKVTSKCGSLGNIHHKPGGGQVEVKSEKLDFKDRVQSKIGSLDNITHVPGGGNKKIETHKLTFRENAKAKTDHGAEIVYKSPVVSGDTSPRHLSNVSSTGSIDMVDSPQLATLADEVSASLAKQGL
Protocol: (§2) Adherent cells were washed with phosphate-buffered saline (PBS) and cell pellets were lysed in SDS-based sample buffer (277.8 mM Tris-HCI, pH 6.8, 4.4% LDS, 44.4% (v/v) glycerol) containing beta-mercaptoethanol. Alternatively, cell pellets or protein supernatants were lysed in 5X Laemmli sample buffer. Whole-cell lysates were separated using SDS-PAGE, and transferred onto polyvinyllidene difluoride membranes at 100 V for 2 h at 4 °C. The membrane was incubated with a blocking solution consisting 4% skim milk in PBS solution for 30 min at room temperature and incubated with primary antibodies overnight, followed by incubation with host-specific HRP-conjugated secondary antibodies (1:10000 dilution). For signal detection, the membrane was developed with a mixture of ECL solution (Thermo Fisher Scientific) using X-ray films. Densitometry of developed bands was measured and analyzed with ImageJ (NIH, Bethesda).

[1] = system: p62 and LC3 punctate structures; test: ICC of p62 and LC3 puncta formation and co-localization in HeLa cells; format: cell-based; conditions: 2.5 μM, 24 h
Protocol: as §1

[2] = system: p62-positive and WIPI2-positive punctate structures; test: ICC of WIPI2-p62 co-localization in HeLa cells; format: cell-based; conditions: HeLa expressing WIPI2-GFP, 2.5 μM, 6 h
Protocol: as §1
Supplementary Fig. 2. Characterization of p62-ZZ ligands (a, c, e) 3-D modeling of p62 […]
μM, 6 h). (m) Quantification of l for co-localization (n=3, 50 cells). Scale bar, 10 µm. (n) […]

[3] = system: autophagic turnover of p62 and LC3; test: Autophagic flux assay in HeLa cells with or without HCQ; format: cell-based; conditions: 2.5 μM, 24 h, with or without HCQ 10 µM 24 h
Protocol: Fig. 1 Nt-Arg-mimicking p62-ZZ ligands activate p62-dependent selective macroautophagy. a A model illustrating the mode of action of autophagy-targeting ligands. b Chemical structures of autophagy-targeting ligands. c In vitro pulldown assay in HEK293T cells of the 12-mer V-BiP peptide or autophagy-targeting ligands. d In vitro p62 oligomerization assay in HEK293T cells incubated with the p62-ZZ ligands in (b). e ICC of HeLa cells treated with p62-ZZ ligands in (b) (2.5 μM, 24 h). Scale bar, 10 μm. f, g Quantification of (e) for puncta formation and co-localization, respectively (n = 3 biologically independent experiments each counting 50 cells). h A schematic/formulae for autophagy flux index. i Autophagic flux assay in HeLa cells treated with YOK-1304 or YTK-105 (2.5 μM, 24 h) in the presence or absence of HCQ (10 µM, 24 h). Data are presented as mean values ± SD where relevant. P-values (from a two-sided unpaired t test): ***P < 0.000956 (for p62 punctate formation), ***P < 0.000539 (for LC3 punctate formation), ***P < 0.000925 (for p62-LC3 co-localization). Source data are provided with this paper. TEXT PRINTED IN THE PICTURE: (i) YOK 1304: Normalized p62 A.F. index: 2.8; Normalized LC3 II/I A.F. index: 4.2 | (i) YTK 105: Normalized p62 A.F. index: 4.6; Normalized LC3 II/I A.F. index: 11.2
as §2

[4] = WST-based cell viability assay in ACHN cells; conditions: human, ACHN cells; for viability at 0.01 µM / viability at 0.1 µM / viability at 1 µM / viability at 10 µM / viability at 50 µM / viability at 100 µM: ACHN
ACHN cells [5] = test: WST-based cell viability assay in ACHN cells; conditions: ACHN, duplicates
ACHN cells [6] = test: Wound healing assay in ACHN cells; format: cell-based; design: wound area / wound area, Average: unit not given here; conditions: ACHN, 5 μM; for wound area: N=1, N=2
Protocol: To analyze cell migration in two dimensions, U-87 MG or ACHN cells were plated to a monolayer. Cells were scratched with a sterile 10 μl pipette tip and the debris was removed using medium. Cells were treated with compounds and incubated for different time to monitor cell behavior. Photographs were obtained using a microscope at different time point.

[7] = duplicates, read-out: WST assay viability relative to con = 100
[8] = read-out: WST assay viability, AVG %

SMILES: O=C(CCCc1ccccc1)NCCOCCOCCOCCNC[C@@H](O)COc1ccc(OCc2ccccc2)c(OCc2ccccc2)c1 [PBA-1106]
- p62 self-oligomerization (p62): triggered its self-oligomerization
- p62 puncta structures (per cell) (Ub^+ and p62^+ puncta): 14 ± 4.2
- DC50 (tauP301L): 1 to 10 nM
- Dmax,24 hr of tauP301L degradation (tauP301L): 100 nM

SMILES: CC(C)NCC(O)COc1ccc(OCc2ccccc2)c(OCCCc2ccccc2)c1 (centres unmarked) [YOK-1304]
- LC3 puncta formation, AVG of cells of 50 [1]: 38.6667
- LC3 puncta formation, percentage AVG [1]: 77.3333%
- p62-LC3 colocalization, AVG of cells of 50 [1]: 37
- p62-LC3 colocalization, percentage AVG [1]: 74%
- p62 puncta formation, AVG of cells of 50 [1]: 40.3333
- p62 puncta formation, percentage AVG [1]: 80.6667%
- LC3 puncta formation, cells of 50 cells counted ([1]; single experiments): 29 and 49 and 38
- p62-LC3 colocalization, cells of 50 cells counted ([1]; single experiments): 36 and 39
- p62 puncta formation, cells of 50 cells counted ([1]; single experiments): 46 and 36 and 39
- WIPI2-GFP-p62 colocalization, AVG of cells of 50 [2]: 30.6667
- WIPI2-GFP-p62 colocalization, percentage AVG [2]: 61.3333%
- WIPI2-GFP-p62 colocalization, cells of 50 cells counted ([2]; single experiments): 28 and 23 and 41
- Normalized LC3 II/I A.F. index [3]: 4.2
- Normalized p62 A.F. index [3]: 2.8
- viability at 0.01 µM [4, 7]: 96.5%
- viability at 0.01 µM [4, 8]: 96%
- viability at 0.1 µM [4, 7]: 110%
- viability at 0.1 µM [4, 8]: 106%
- viability at 1 µM [4, 7]: 104%
- viability at 1 µM [4, 8]: 102%
- viability at 10 µM [4, 7]: 101%
- viability at 10 µM [4, 8]: 102%
- viability at 50 µM [4, 7]: 118%
- viability at 50 µM [4, 8]: 113%
- viability at 100 µM [4, 7]: 64.9%
- viability at 100 µM [4, 8]: 67.1%
- IC50 ([4]; WST-based viability assay, read-out: cytotoxicity IC50): > 20000 nM
- WST assay raw reading (ACHN cells [5]; 0.01uM): 0.964 and 0.955
- WST assay viability relative to con = 100 (ACHN cells [5]; 0.01uM): 95.4624
- WST assay raw reading (ACHN cells [5]; 0.1uM): 1.085 and 1.014
- WST assay raw reading (ACHN cells [5]; 1uM): 1.025 and 0.998
- WST assay viability relative to con = 100 (ACHN cells [5]; 1uM): 100.423
- WST assay raw reading (ACHN cells [5]; 10uM): 1.004 and 1.024
- WST assay viability relative to con = 100 (ACHN cells [5]; 10uM): 103.422
- WST assay raw reading (ACHN cells [5]; 50uM): 1.153 and 1.063
- WST assay viability relative to con = 100 (ACHN cells [5]; 50uM): 107.922
- WST assay raw reading (ACHN cells [5]; 100uM): 0.69 and 0.729
- WST assay viability relative to con = 100 (ACHN cells [5]; 100uM): 69.3905
- wound area, Average (ACHN cells [6]; 0h): 2209762
- wound area, Average % (ACHN cells [6]; 0h): 0%
- wound area (ACHN cells [6]; 0h): 2287288 and 2132236
- wound area, Average (ACHN cells [6]; 4h): 1966032
- wound area, Average % (ACHN cells [6]; 4h): 0%
- wound area (ACHN cells [6]; 4h): 2073039 and 1859025
- wound area, Average (ACHN cells [6]; 12h): 1228896
- wound area, Average % (ACHN cells [6]; 12h): 0%
- wound area (ACHN cells [6]; 12h): 1307559 and 1150234
- wound area, Average (ACHN cells [6]; 24h): 122450
- wound area, Average % (ACHN cells [6]; 24h): 0%

Source: PMC8850458, “The AUTOTAC chemical biology platform for targeted protein degradation via the autophagy-lysosome system” (Nature Communications, 2022)
